{"source": "patent US20090036424A1", "about": "“ASSOCIATION BETWEEN HLA-DRBI*07 ALLELE AND SUSCEPTIBILY TO INCREASED LEVELS OF ALAT FOLLOWING XIMELAGATRAN ADMINISTRATION” (AstraZeneca AB, priority 2005, published 2009)", "system": "alanine aminotransferase (ALAT)", "experiment": "ALAT elevation during longer-term ximelagatran treatment in clinical trials", "assay_type": "in vivo, human", "text": "Phase III clinical trials have been performed using fixed doses of melagatran and ximelagatran for the prevention of VTE in hip or knee replacement surgery. In addition, clinical trials have been performed using ximelagatran for the treatment and long-term secondary prevention of VTE, and for the prevention of stroke in patients with non-valvular atrial fibrillation. Ximelagatran has also been tested for secondary thrombosis prophylaxis post-myocardial infarction/acute coronary syndrome (ACS).\nAlanine aminotransferase (ALAT) is an enzyme mostly expressed in the liver (EC 2.6.1.2). It is also called serum glutamate pyruvate transaminase (SGPT) or alanine transaminase (ALT). This enzyme is released into the plasma by liver cell death, which is a normal event. However, when liver cell death increases, ALAT levels rise above the normal range. The spill-over of this enzyme into blood is routinely measured as a marker of abnormal liver-cell damage. For example, alcoholic or viral hepatitis will increase ALAT levels, as will severe congestive heart failure. An elevated ALAT in the presence of normal levels of plasma alkaline phosphatase helps distinguish liver disease caused by liver-cell damage from diseases caused by problems in biliary ducts.\nElevations of ALAT are normally measured in multiples of the upper limit of normal (ULN), with a reference range of 15-45 U/L in most laboratories. In 1987, in a study of 19,877 healthy Air Force recruits, only 99 (0.5%) had confirmed ALAT elevations (as reviewed in Green & Flamm (2002) Gastroenterology 123:1367-1384).\nThe increase in ALAT values with ximelagatran usually occurred within the first 6 months of treatment and were mainly asymptomatic. […] Subject to the future regulatory approval of ximelagatran, regular liver function testing (LFT) using an appropriate algorithm may be required if ximelagatran is used for treatment periods exceeding a month. Studies are currently ongoing to try and establish the mechanism of the ALAT elevations, and their hepatic and overall clinical significance."}
{"smiles": "CCOC(=O)CN[C@@H](C(=O)N1CC[C@H]1C(=O)NCc1ccc(/C(N)=N\\O)cc1)C1CCCCC1", "note": "[ximelagatran, EtOOC—CH2—(R)Cgl-Aze-Pab-OH]", "values": [{"measurement": "patients exhibiting levels of alanine aminotransferase (ALAT) 3-fold or more above the upper limit of normal (≧3×ULN)", "setting": "longer-term treatment (>35 days), 1.2% in the comparator groups", "value": 7.9, "unit": "%"}, {"measurement": "reversibility of ALAT increases", "setting": "regardless of whether treatment was continued or discontinued", "value": "reversible in most patients"}, {"measurement": "time of occurrence of the increase in ALAT values", "setting": "usually, from start of treatment, mainly asymptomatic", "value": "≤ 6", "unit": "months"}]}
